Reference: patent publication US8435576B2, “Use of cocoa polyphenols for treating a prostate hyperplasia, a specific cocoa extract and applications” (Barry Callebaut AG, priority 2005, dated 2013)
pIC50: −log10 of the molar value. Like-named read-outs stand apart in the source and are kept apart here.

How the values were obtained:
Type in all cases: cell-based, human
[1] = tested on: coculture of 22Rv1 and RWEP-1 cells; test: Anti-galectin 8 immunolabeling of treated coculture; details: medium M3, 2.5×10^−4% and 1.2×10^−4%
Description: As a result, an anti-galectin 8 human monoclonal antibody (R&D Systems, Ref: MAB1305) was selected to specifically fluorescence-label the human prostate tumor cell line.
The healthy and tumoral cells were inoculated in coculture, at a rate of 30 000 cells per well for each cell line, in the selected medium for obtaining uniform and specific labeling of the tumoral cells.
After 24 hours in an incubator at 37° C. and 5% CO2 of saturated humidity, the coculture was incubated in the presence of β-sitosterol at two concentrations and of CPE also at two concentrations.
At the end of the incubation time with the products, the cell lawns were fixed in alcohol/acetic acid and then labeled with the anti-galectin 8 human monoclonal antibody for 1 hour. […] After intensive washing with PBS, the labeled cell lawns were observed using a Nikon DXM1200F camera driven by LUCIA 6.0 software. All the images were taken under the same conditions and with identical camera settings.
For the experiment, in order to improve the intensity of this immunolabeling and for better visual rendering quality, the concentration of the anti-galectin 8 primary antibody was increased from 1/50th to 1/20th. Furthermore, this primary antibody was incubated overnight at +4° C. for better fixing of the antibody and thus for better labeling intensity. […]

DU145 cells = test: Cell growth and viability (neutral red / sulforhodamine B) and morphology
Description: (§1) Each product (1 to 5) was applied for 1 to 72 hours, at various concentrations. The number of cells was compared with a control, namely cells cultured in the absence of the test compound.
(§2) The human prostate carcinoma cells DU145 and 22Rv1 were supplied by the American Type Culture Collection (ATCC, Rockville, Md.). The DU145 cells originate from a cerebral metastasic site and are not sensitive to androgens. The 22Rv1 cells originate from a prostate carcinoma and are sensitive to androgens. The cells were maintained in the form of a monolayer culture according to the usual techniques, in […] flasks (Corning), at 37° C., in an atmosphere containing 5% CO2 and at 95% humidity, in an RPMI-1640 medium free of phenol red and supplemented with 10% of heat-inactivated fetal calf serum and 1% of L-glutamine.
(§3) Five products were tested for this study and were stored protected from light, at +4° C. The β-sitosterol (product 1), obtained from Sigma Chemicals, was first dissolved in absolute ethanol, up to a final concentration of 24.1 mM. Product 2, supplied by Barry Callebaut, France, is a defatted cocoa extract containing 35.5% polyphenols and 0.081% β-sitosterol. Product 3 was reconstituted from products 1 and 2 and contained 35.5% polyphenols and 0.72% β-sitosterol. Products 4 and 5 were manufactured by Barry Callebaut, France. The composition of product 4 is unknown, and contains no β-sitosterol. Product 5 contains 35.27% polyphenols and 0.72% β-sitosterol. Products 2, 3, 4 and 5 were first dissolved in whole medium. As regards products 2, 4 and 5, the total polyphenols of the cocoa extracts originate from different countries.
(§4) Just before use, the final concentrations of products (table 1) used are prepared for the various experiments by means of stock solutions, by diluting the stock solution in whole medium. 64.2 μM of β-sitosterol is the maximum dose used in this solubility range and in the physiological range (4 to 70 μM). The absolute ethanol is at a constant concentration of 0.26% in the solvent-based control, in the negative control and in the 8 test concentrations. The ratios of the β-sitosterol and of the polyphenols for products 2, 3 and 5 are as follows: • Product 2:2:1000 • Product 3:2:100 • Product 5:2:100
(§5) The cells were inoculated on 96-well plates at an initial density of 15 000 cells/well for DU145, at an initial density of 30 000 cells/well for 22Rv1 and at an initial density of 25 000 cells/well for RWEP-1, with 200 μL of medium per well. The cell density was optimized as a function of the time required to double the population of cells, in order to obtain a significant measurement of the Optical Density (OD) and to be able to compare the various cells lines. After 24 hours, in order to ensure uniform fixing of the cells from the start of the experiments, the products were added to the cell cultures at various concentrations and at various times. After incubation with the products, the growth and viability of the cells was measured using neutral red (NR) and sulforhodamine B (SRB) combined (In Cytotox, Vandoeuvre, France). The absorption of the vital stain NR was used by the lysosomes/endosomes and by the vacuoles of the live cells as a quantitative indication of the number and viability of the cells after treatment with a chemical test. The anionic stain SRB made it possible to quantify the viable cells via measurement of the protein content of the cells.
(§6) The cytotoxicity was evaluated 1, 3, 6, 24, 48 and 72 hours after incubating the 22Rv1, RWEP-1 and DU145 cells with the products. The cells were washed with 200 μl of washing solution in order to remove the culture medium supplemented with the products. 200 μL of neutral red base medium was added and incubated with the cells at 37° C. for 3 hours. The neutral red base medium was then removed and the cells were washed twice with phosphate-buffered physiological saline (PBS). The cells were fixed for 1 minute with 200 μL of fixing solution. […]

22Rv1 cells = test: as above; details: for pIC50: 72 h, read-out: CI50 (the source's name)
Description: as §1, §2, §3, §4, §5, §6

CC[C@H](CC[C@@H](C)[C@H]1CC[C@H]2[C@@H]3CC=C4C[C@@H](O)CC[C@]4(C)[C@H]3CC[C@]12C)C(C)C [β-sitosterol]
Area of labeling (anti-galectin 8 and Hoechst) [1]: equivalent to that of the untreated proliferation control
max. inhibition (DU145 cells; 24 h, DU145, NR): 11%
max. inhibition (DU145 cells; 24 h, DU145, SRB): 42%
max. inhibition (DU145 cells; 48 h, DU145, NR): 21%
max. inhibition (DU145 cells; 48 h, DU145, SRB): 44%
max. inhibition (DU145 cells; 72 h, DU145, NR): 42%
max. inhibition (DU145 cells; 72 h, DU145, SRB): 40%
Morphological alterations (DU145 cells; DU145, maximum concentration, up to 48 hours): No significant difference was observed in terms of density and morphology
IC50 (DU145 cells; DU145, short-term and long-term treatments): did not induce an IC50
Inhibition of lysosomial activity or protein synthesis (22Rv1 cells; 22Rv1, 1, 3 and 6 hours of treatment): did not inhibit the lysosomial activity or protein synthesis
Morphological alterations (22Rv1 cells; 22Rv1, maximum concentration, up to 48 hours): No significant difference in terms of density and morphology
max. inhibition (22Rv1 cells; 24 h, 22RV1, NR): 49%
max. inhibition (22Rv1 cells; 24 h, 22RV1, SRB): 49%
max. inhibition (22Rv1 cells; 48 h, 22RV1, NR): 36%
max. inhibition (22Rv1 cells; 48 h, 22RV1, SRB): 47%
pIC50 (22Rv1 cells; 22RV1, NR): 4.75
pIC50 (22Rv1 cells; 22RV1, SRB): 4.47
